Values after ≈ are worked out from the molar mass of the structure shown.

For 40 compounds, IC90 results are on record in PubChem BioAssay AID2842 (Southern Research Institute, 2010).

This assay concerns M. tuberculosis H37Rv growth inhibition. In words: Mycobacterium tuberculosis H37Rv growth inhibition, putative kinase inhibitor library, confirmatory dose response (AID 2842).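 Note: bacteria incubated one week before Alamar blue readout.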

What is called IC90 is the concentration needed for an effect of 90%. Turning to `COC(=O)c1c(NC(=O)C(c2ccccc2)c2ccccc2)sc2c1CC(C)(C)NC2(C)C`, the IC90 is 6.07 µg/mL (≈ 13.1 µM).
The result for `O=C(OCn1nnc2ccccc2c1=O)c1ccccc1` reads 1.41 µg/mL (≈ 5.01 µM); that for `COc1ccc(C(=O)NNc2nc3cc(C)cc(C)c3s2)cc1`, 38.8 µg/mL (≈ 118 µM).
For `COc1ccc2sc(Nc3nnc(-c4ccco4)o3)nc2c1` the value was 80 µg/mL (≈ 255 µM); for `O=C(Nc1nnc(-c2ccco2)o1)c1cccc(Oc2ccccc2)c1`, 3.31 µg/mL (≈ 9.53 µM).
The result for `OC(CNCc1ccco1)Cn1c2ccc(Cl)cc2c2cc(Cl)ccc21` (stereo not given) reads 1.71 µg/mL (≈ 4.39 µM); that for `Cc1nnc(SCC(=O)Nc2ccc3c(c2)OCCO3)n(N)c1=O`, 23.1 µg/mL (≈ 66.2 µM).
In the case of `CC(=O)Nc1ccc2nc(Nc3nc4ccc(Cl)cc4s3)sc2c1`, the IC90 is 8.93 µg/mL (≈ 23.8 µM).
On to `Nc1c(C(=O)Nc2ccc(Br)cc2)sc2nc3c(c(-c4cccs4)c12)CCCC3`, for which the 90% effect concentration (IC90) was 5.12 µg/mL (≈ 10.6 µM).
For `Cc1ccc(-c2nnc(NC(=O)c3ccccc3C)o2)c(C)c1` the value was 2.52 µg/mL (≈ 8.2 µM); for `O=C(CCc1ccccc1)Nc1nnc(-c2cc(Cl)ccc2Cl)o1`, 26.6 µg/mL (≈ 73.4 µM).
For `CC(C)(C)C1CCc2c(sc3nnn(CC(=O)NCc4ccco4)c(=O)c23)C1` (stereo not given) the value was 22.3 µg/mL (≈ 55.7 µM); for `Cc1ccccc1C(=O)Nc1nnc(-c2cc(Cl)ccc2Cl)o1`, 1.27 µg/mL (≈ 3.65 µM).
The result for `O=C(Nc1nc(-c2ccc3c(c2)CCCC3)cs1)c1ccc2c(c1)OCCO2` reads 14.5 µg/mL (≈ 36.9 µM); that for `O=C(CCSc1ccccc1)Nc1nnc(-c2cccs2)o1`, 7.87 µg/mL (≈ 23.7 µM).
Consider `COc1cccc(Nc2nc3ccc(OC)cc3s2)c1`, for which the IC90 is 23.3 µg/mL (≈ 81.2 µM).
For `O=C(Nc1cccc(Br)c1)c1ccc([N+](=O)[O-])s1`, the IC90 is less than 0.2 µg/mL.
On to `O=C(Nc1nnc(-c2ccc(F)cc2)o1)c1cccc([N+](=O)[O-])c1`, for which the 90% effect concentration (IC90) is 13.2 µg/mL (≈ 40.2 µM).
As to `Cc1ccc(NC(=O)CC2Nc3cccc4cccc(c34)NC2=O)cc1` (stereo not given), the IC90 was 61.8 µg/mL (≈ 179 µM).
For `Cc1nc2c(ccc3nc(NC(=O)c4ccco4)sc32)s1`, the 90% effect concentration (IC90) is 35 µg/mL (≈ 111 µM).
For `CCOc1ccc(-c2[nH]ncc2-c2ccc(Cl)cc2)c(O)c1` the value was 7.06 µg/mL (≈ 22.4 µM).
The result for `Cc1ccc(-c2[nH]c3ccccc3c2SCCNC(=O)c2cc3ccccc3oc2=O)cc1` reads 4 µg/mL (≈ 8.8 µM).
On to `Cc1ccc(C)c(-c2nnc(NC(=O)c3cccc4ccccc34)o2)c1`, for which the IC90 was 0.41 µg/mL (≈ 1.19 µM).
For `O=C(Nc1nnc(-c2ccc3c(c2)CCCC3)o1)c1sc2ccccc2c1Cl` the value was 34.5 µg/mL (≈ 84.2 µM); for `CCOC(=O)c1csc(Nc2nc3c(SC)cccc3s2)n1`, 3.13 µg/mL (≈ 8.91 µM); for `Cc1cccc2sc(NNC(=O)c3ccc(N(C)C)cc3)nc12`, 28.6 µg/mL (≈ 87.6 µM).
For `Cc1ccccc1C(=O)Nc1nnc(-c2ccco2)o1` the value was 1.69 µg/mL (≈ 6.28 µM); for `O=C(Nc1ncc(Cc2ccc(F)cc2)s1)c1cccc(-n2cnnn2)c1`, 10.2 µg/mL (≈ 26.7 µM); for `Cc1ccc2nc(N(CCCn3ccnc3)C(=O)c3ccco3)sc2c1`, 0.48 µg/mL (≈ 1.31 µM).
Take `Cc1ccc(C)c(-c2nnc(NC(=O)c3ccc(Cl)cc3)o2)c1`: the concentration for an effect of 90% (IC90) is 22.7 µg/mL (≈ 69.2 µM).
On to `Cc1ccc(N=C2NC(=O)C(Cc3ccccc3Cl)S2)cc1` (stereo not given), for which the 90% effect concentration (IC90) was 25.4 µg/mL (≈ 76.9 µM).
For the compound `N#C/C(=C\c1c(Oc2ccccc2F)nc2ccccn2c1=O)C(N)=O`, the IC90 was 11.4 µg/mL (≈ 32.5 µM).
For `Cc1ccc2sc(N(CCCn3ccnc3)C(=O)c3ccc(F)cc3)nc2c1C` the value was 3.68 µg/mL (≈ 9.01 µM).
For `CCOc1ccc(-c2nnc3c4cc5c(cc4n(Cc4cccc(F)c4)cc2-3)OCO5)cc1` the value was 54.2 µg/mL (≈ 123 µM); for `COc1cc(OC)cc(C(=O)N(CCCn2ccnc2)c2nc3c(F)cccc3s2)c1`, 20.6 µg/mL (≈ 46.8 µM); for `NC(=O)c1c(NC(=O)c2ccc([N+](=O)[O-])o2)sc2c1CCCCC2`, 0.52 µg/mL (≈ 1.49 µM).
For `CC(C)(C)c1ccc(C(=O)Nc2nnc(-c3cccnc3)o2)cc1` the value was 0.84 µg/mL (≈ 2.61 µM).
Take `COc1ccc(C(=O)N(CCCn2ccnc2)c2nc3c(C)c(C)ccc3s2)cc1OC`: the IC90 was 14.2 µg/mL (≈ 31.5 µM).
The result for `O=c1[nH]c(CSc2ccccc2)nc2ccccc12` reads 7.54 µg/mL (≈ 28.1 µM); that for `N#CC1=C(N)OC2=C(C(=O)CC(c3ccccc3)C2)C1C1CCCCC1` (stereo not given), 7.8 µg/mL (≈ 22.4 µM).
